Patent US20220395458A1, “PREVENTION OF VISIBLE PARTICLE FORMATION IN AQUEOUS PROTEIN SOLUTIONS” (Hoffmann-La Roche Inc., priority 2019, published 2022)

How the values were obtained:
[1] = Particle identification by FTIR; type: physicochemical; conditions: particle identification d1
Description: Particles >20 μm were further identified by Fourier transformed infrared spectroscopy (FTTIR) using a Nicolet™ iNTM10 Infrared Microscope (Thermo Fisher Scientific) by comparison to reference spectra. Samples were filtrated under laminar air flow through gold-coated polycarbonate filters (pore size 0.8 μm, diameter 13 mm, Sterlitech). Filter conditioning included few droplets of ethanol followed by 1 mL of particle-free water. After filtration of the samples, ˜1 mL of cooled particle-free water was used as a final washing step before analysis.
(§1) pH of all solutions was verified. Samples were visually inspected immediately after spiking and regularly for up to 7 days. Further characterization by HIAC, turbidity, FTIR, and SEM-EDX was performed on day 1 only. All samples were analyzed when equilibrated to room temperature (4 h).
Glass leachables were generated from different types of glass vials, e.g. Exp33 and Exp51 vials, with different matrix solutions including WFI, a glycine solution adjusted to pH 6, and a placebo solution representative for a mAb formulation. Defined amounts of myristic and lauric acid below their solubility limit were added to the solutions/mixtures of glass leachables and analyzed. Visible particles in Seidenader are summarized in Table 3 and were detected for all samples in contrast to various controls. Particle formation was dependent on the glass leachable solution and dependent on incubation time. […] An example for the dependency of particle formation on incubation time is provided in Table 3 for myristic acid in glass leachable solution from Exp51 vials/glycine solution. The example highlights the kinetics of particle formation with no particles directly after spiking and more than 10 particles at incubation day 5 and 7. For selected samples, particles were further characterized and identified by FTIR confirming the presence of free fatty acids. FFA were not confirmed by FTIR for glass leachable solutions generated with WFI, which is linked to the time point of FTIR analysis at d1 and the late onset of particle formation for these samples. Placebo samples were not analyzed further by FTIR as the positive control was found negative attributed to the presence of additional 0.02% PS20, potentially solubilizing the FFA seeds. Characterization of the particles by SEM-EDX confirmed the presence of glass leachables, like Aluminium or silicon on the surface of the FFA particles. […] The spiking study highlights that mixtures of ‘real’ glass leachables lead to precipitation of FFA and particle formation in the visible range dependent on mixture and amount of glass leachables as well as dependent on incubation time, […]

[2] = Visible particles by Seidenader after spiking FFA to inorganic salt solutions; type: physicochemical; conditions: for Visible particles in Seidenader: dependent on salt concentration over time, much lesser extent than CaCl2 and NaAlO2; for Visible particles Seidenader d0 / Visible particles Seidenader d1 / Visible particles Seidenader d2 / Visible particles Seidenader d7: FFA below solubility limit; for Visible particles Seidenader d0: d0 directly after spiking
Description: Del.) at 100 rpm at 25° C., for 1 hour. […] FFA concentrations were verified for selected by LC-MS samples acc. Honemann et al.^7
[…] NaCl, NaAlO2. NaBO2. B2O3, and CaCl2 (Sigma-Aldrich/Merck. Darmstadt. Del.) were selected as their dissolution products (ions) represent typical glass leachables from Type I borosilicate glass. The pH of the NaAlO2 and NaBO2 stock solutions was adjusted to pH 6 using HCl and subsequently filtered using 0.22 μm PVDF Sterivex filters (Merck Millipore. Darmstadt. Del.) and true elemental concentrations were determined by inductively-coupled plasma mass spectrometry (ICP-MS). […] Spiking experiments with FFA were performed in duplicates.
Samples were analyzed by visual inspection on a Seidenader V 90-T instrument (Seidenader Maschinenbau GmbH. Markt Schwaben. Del.) as previously described by Ditter et al.^9 and using a black/white panel according Ph. Eur. 2.9.20.^10 and classified as Many particles (>7). Few particles (4-7), or Practically free of particles (0-4) in E/P box, and Many particles (>10). Few particles (6-10). Essentially free of particles (1-5), or Free of particles (0) by Seidenader.
as §1
Different inorganic salt solutions, i.e. CaCl2. NaAlO2. NaBO2. B2O3, and NaCl, were prepared simulating artificial glass leachables. Myristic and lauric acid, as main degradation product from hydrolytic PS20 degradation, were added at concentrations below their solubility limit and samples were analyzed for visible particles. SVP, and turbidity. Samples were compared against relevant controls and the pH verified at pH 6.

[3] = CaCl2 250 μg/mL (Ca2+ 90 μg/mL)
[4] = CaCl2 500 μg/mL (Ca2+ 180 μg/mL)
[5] = CaCl2 1000 μg/mL (Ca2+ 360 μg/mL)
[6] = NaAlO2 nominal 250 μg/mL (0.012 μg/mL ion)
[7] = NaAlO2 nominal 500 μg/mL (0.024 μg/mL ion)
[8] = NaAlO2 nominal 1000 μg/mL (0.048 μg/mL ion)

SMILES	FTIR ([1]; Exp51 vials, 3xTS Glycine pH 6)	Visible particles in Seidenader ([2]; B2O3 solution)	Visible particles Seidenader d0 [2, 3]	Visible particles Seidenader d2 [2, 3]	Visible particles Seidenader d7 [2, 3]	Visible particles Seidenader d0 [2, 4]	Visible particles Seidenader d2 [2, 4]	Visible particles Seidenader d7 [2, 4]	Visible particles Seidenader d2 [2, 5]	Visible particles Seidenader d1 [2, 6]	Visible particles Seidenader d2 [2, 6]	Visible particles Seidenader d7 [2, 8]	Visible particles in Seidenader ([2]; NaBO2 solution)	other results
CCCCCCCCCCCCCC(=O)O [Myristic acid, myristic acid]	FFA	visible particles were obtained	xxx (Many particles (>10, xxx))	xxx (Many particles (>10, xxx))	xxx (Many particles (>10, xxx))	xxx (Many particles (>10, xxx))	xxx (Many particles (>10, xxx))	xxx (Many particles (>10, xxx))	xxx (Many particles (>10, xxx))	x (Essentially free of particles (1-5, x))	x (Essentially free of particles (1-5, x))	xxx (Many particles (>10, xxx))	visible particles were obtained	FTIR ([1]; Exp33 vials, 3xTS Glycine pH 6): FFA; Visible particles Seidenader d1 [2, 3]: xxx (Many particles (>10, xxx)); Visible particles Seidenader d1 [2, 4]: xxx (Many particles (>10, xxx)); Visible particles Seidenader d0 [2, 5]: xxx (Many particles (>10, xxx)); Visible particles Seidenader d1 [2, 5]: xxx (Many particles (>10, xxx)); Visible particles Seidenader d7 [2, 5]: xxx (Many particles (>10, xxx)); Visible particles Seidenader d7 [2, 6]: xxx (Many particles (>10, xxx)); Visible particles Seidenader d2 [2, 7]: x (Essentially free of particles (1-5, x)); Visible particles Seidenader d7 [2, 7]: xxx (Many particles (>10, xxx)); Visible particles Seidenader d0 [2, 8]: x (Essentially free of particles (1-5, x))
CCCCCCCCCCCC(=O)O [Lauric acid, lauric acid]	FFA	visible particles were obtained	/ (Free of particles (0, /) by Seidenader)	xxx (Many particles (>10, xxx))	xxx (Many particles (>10, xxx))	/ (Free of particles (0, /) by Seidenader)	xxx (Many particles (>10, xxx))	xxx (Many particles (>10, xxx))	xxx (Many particles (>10, xxx))	x (Essentially free of particles (1-5, x))	x (Essentially free of particles (1-5, x))	xxx (Many particles (>10, xxx))	visible particles were obtained	FTIR ([1]; Exp33 vials, 3xTS WFI): FFA; Visible particles Seidenader d0 [2, 6]: / (Free of particles (0, /) by Seidenader); Visible particles Seidenader d0 [2, 7]: x (Essentially free of particles (1-5, x)); Visible particles Seidenader d1 [2, 7]: x (Essentially free of particles (1-5, x)); Visible particles Seidenader d1 [2, 8]: x (Essentially free of particles (1-5, x))
